Where “and” joins values, the source holds several entries; their conditions need not be identical. Equal entries are not always repeated.
Columns and labels:
[1] = test system: L3.6pl pancreatic xenograft; experiment: Tumor growth in L3.6pl pancreatic xenograft model; conditions: days post implant; IPI-926 40 mg/kg QOD, Abraxane 20 mg/kg QW1
Experimental: The L3.6pl human pancreatic cell line was implanted subcutaneously into mice and treatment was initiated on Day 10 after implant. IPI-926 was administered orally at 40 mg/kg every other day (“QOD”) and Abraxane® was administered i.v. at 20 mg/kg once a week (QW1). […] Mice remained on treatment and time to reach 1000 mm^3 was recorded. Once tumors reached 1000 mm^3, mice were taken off study.

[2] = test system: L3.6pl pancreatic cancer xenograft; experiment: Tumor perfusion by contrast-enhanced ultrasound in L3.6pl xenograft; assay type: in vivo, mice
Experimental: The effects of IPI-926 on tumor perfusion were examined in the L3.6pl pancreatic cancer xenograft model. The L3.6pl tumor cell line was injected subcutaneously and treatment with IPI-926 was initiated. IPI-926 or vehicle was administered orally at 40 mg/kg for seven consecutive days. Mice were subjected to ultrasound image analysis using perfusion contrast enhancement (microbubbles) during the imaging procedure. […] The time to reach peak contrast was measured and there was a decrease in the IPI-926 treated animals compared to vehicle-treated animals.

murine Gli1 mRNA = experiment: Q-RT-PCR of murine Gli1 mRNA in L3.6pl and ASPC-1 pancreatic cancer xenografts; assay type: in vivo, mice; conditions: IPI-926 orally 40 mg/kg, tumors collected 24 hours later; p<0.005
Source text: (§1) The abilities of IPI-926 to regulate Gli1 expressions were examined in pancreatic cancer xenograft models of L3.6pl and ASPC-1. L3.6pl and ASPC-1 human pancreatic cell lines were implanted subcutaneously into mice. […] Human Hh ligand expression was detected and human Glil mRNA levels were not modulated with the treatment (data not shown).

human Gli1 mRNA = experiment: Q-RT-PCR of human Gli1 mRNA in L3.6pl and ASPC-1 pancreatic cancer xenografts; assay type: in vivo; conditions: IPI-926 orally 40 mg/kg, tumors collected 24 hours later; data not shown
Source text: as §1

[3] = test system: ASPC-1 human pancreatic tumor; experiment: Tumor growth in ASPC-1 human pancreatic tumor model; conditions: day 41, compared to vehicle control; IPI-926 40 mg/kg orally QOD, Abraxane 20 mg/kg i.v. QW1
Experimental: The ASPC-1 human pancreatic cell line was implanted subcutaneously and treatment was initiated on day 20 after implant. IPI-926 was administered orally at 40 mg/kg QOD and Abraxane® was dosed i.v. at 20 mg/kg QW1. The final i.v. dose of Abraxane® was administered on day 34 and the final dose of IPI-926 was administered on day 41. Re-growth was monitored after the treatment stopped.

[4] = test system: human colon adenocarcinoma HT29 xenograft; experiment: Tumor growth in human colon adenocarcinoma HT29 xenograft model; assay type: in vivo, mice; conditions: for tumor inhibition as single agent: i.p., 75 mg/kg qdx12 and 100 mg/kg qdx12
Experimental: The effects of each of ABI2012, ABI1914, ABI2088, and ABI2099 on tumor growth were studied in human colon adenocarcinoma HT29 xenograft model. Mice were implanted with HT29 cells and ABI2012, ABI1914, ABI2088, and […] were administered by intraperitoneal route (“i.p.”) to the mice at two dosages: 75 mg/kg qdx12 and 100 mg/kg qdx12. […] The body weights of the mice with HT 29 xenograft treated with ABI2012, ABI1914, ABI2088, or ABI2099 were monitored, as shown in FIGS. 5B and 5D.
The effects of the combination of various Hedgehog pathway inhibitors (ABI2012, ABI1914, ABI2088, or ABI2099) and Abraxane® were studied in HT29 xenograft model. Each of ABI2012, ABI1914, ABI2088, and ABI2099 was administered at 75 mg/kg qdx12, i.p. Abraxane® was administered at 10 mg/kg q4dx3, i.v. The tumor volumes were measured. […] The body weights of the mice with HT 29 xenograft treated with each of ABI2012, ABI1914, ABI2088, and ABI2099 in combination with Abraxane® were monitored, as shown in FIG. 6B.

Ret(h) = Ret(h) (Homo sapiens, UniProt P07949); experiment: Kinase inhibition at 1 μM; assay type: biochemical; conditions: 1 μM of compound
Source text: (§2) The activities of various hedgehog inhibitors (ABI2012, ABI1914, ABI2008, and ABI1915) on kinase inhibition were studied. […] The compounds were stable in microsomes.

EGFR(h) = EGFR(h) (Homo sapiens, UniProt P00533); experiment: Kinase inhibition at 1 μM; assay type: biochemical; conditions: 1 μM of compound
EGFR(h), sequence (P00533 25-1210): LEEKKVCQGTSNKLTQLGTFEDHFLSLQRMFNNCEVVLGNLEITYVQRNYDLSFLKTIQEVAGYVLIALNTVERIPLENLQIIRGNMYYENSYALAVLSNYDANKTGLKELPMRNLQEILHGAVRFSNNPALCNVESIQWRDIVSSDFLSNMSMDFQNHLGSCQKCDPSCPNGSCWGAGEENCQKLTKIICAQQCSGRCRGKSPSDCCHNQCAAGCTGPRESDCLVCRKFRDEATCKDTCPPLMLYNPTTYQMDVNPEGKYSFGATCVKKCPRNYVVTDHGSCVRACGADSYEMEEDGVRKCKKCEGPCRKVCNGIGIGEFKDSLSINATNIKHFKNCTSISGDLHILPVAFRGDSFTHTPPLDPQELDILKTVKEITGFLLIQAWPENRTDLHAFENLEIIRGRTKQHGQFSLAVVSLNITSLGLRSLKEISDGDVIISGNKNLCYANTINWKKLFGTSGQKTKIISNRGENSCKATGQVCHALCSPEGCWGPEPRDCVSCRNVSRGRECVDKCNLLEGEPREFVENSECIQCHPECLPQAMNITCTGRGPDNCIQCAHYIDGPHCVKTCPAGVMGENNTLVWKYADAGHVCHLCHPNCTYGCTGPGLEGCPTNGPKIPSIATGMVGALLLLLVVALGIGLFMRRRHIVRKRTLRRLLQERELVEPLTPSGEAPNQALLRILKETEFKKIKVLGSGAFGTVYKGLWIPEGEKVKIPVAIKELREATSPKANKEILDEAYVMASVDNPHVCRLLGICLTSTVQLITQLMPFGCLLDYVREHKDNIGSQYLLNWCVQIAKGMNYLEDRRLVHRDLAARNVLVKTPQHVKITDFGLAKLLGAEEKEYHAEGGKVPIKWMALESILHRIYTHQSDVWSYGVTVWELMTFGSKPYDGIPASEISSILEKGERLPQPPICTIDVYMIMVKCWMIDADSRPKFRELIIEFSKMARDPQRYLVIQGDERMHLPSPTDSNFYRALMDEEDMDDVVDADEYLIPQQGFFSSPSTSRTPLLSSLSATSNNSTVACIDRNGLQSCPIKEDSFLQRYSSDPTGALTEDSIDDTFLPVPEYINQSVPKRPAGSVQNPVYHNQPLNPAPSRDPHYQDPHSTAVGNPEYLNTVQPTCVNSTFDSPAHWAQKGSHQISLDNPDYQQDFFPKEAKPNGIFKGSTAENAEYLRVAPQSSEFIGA
Source text: as §2

GF-1R(h), activate = GF-1R(h), activate (Homo sapiens, UniProt P08069); experiment: Kinase inhibition at 1 μM; assay type: biochemical; conditions: 1 μM of compound
Source text: as §2

PDGFRa(h) = PDGFRa(h) (Homo sapiens, UniProt P16234); experiment: Kinase inhibition at 1 μM; assay type: biochemical; conditions: 1 μM of compound
Source text: as §2

cKit(h) = cKit(h) (Homo sapiens, UniProt P10721); experiment: Kinase inhibition at 1 μM; assay type: biochemical; conditions: 1 μM of compound
Source text: as §2

Aurora-A(h) = Aurora-A(h) (Homo sapiens, UniProt O14965); experiment: Kinase inhibition at 1 μM; assay type: biochemical; conditions: 1 μM of compound
Source text: as §2

mTOR(h) = mTOR(h) (Homo sapiens, UniProt P42345); experiment: Kinase inhibition at 1 μM; assay type: biochemical; conditions: 1 μM of compound
Source text: as §2

Met(h) = Met(h) (Homo sapiens, UniProt P08581); experiment: Kinase inhibition at 1 μM; assay type: biochemical; conditions: 1 μM of compound
Source text: as §2

MEK1(h) = MEK1(h) (Homo sapiens, UniProt Q02750); experiment: Kinase inhibition at 1 μM; assay type: biochemical; conditions: 1 μM of compound
MEK1(h), sequence (Q02750 whole entry): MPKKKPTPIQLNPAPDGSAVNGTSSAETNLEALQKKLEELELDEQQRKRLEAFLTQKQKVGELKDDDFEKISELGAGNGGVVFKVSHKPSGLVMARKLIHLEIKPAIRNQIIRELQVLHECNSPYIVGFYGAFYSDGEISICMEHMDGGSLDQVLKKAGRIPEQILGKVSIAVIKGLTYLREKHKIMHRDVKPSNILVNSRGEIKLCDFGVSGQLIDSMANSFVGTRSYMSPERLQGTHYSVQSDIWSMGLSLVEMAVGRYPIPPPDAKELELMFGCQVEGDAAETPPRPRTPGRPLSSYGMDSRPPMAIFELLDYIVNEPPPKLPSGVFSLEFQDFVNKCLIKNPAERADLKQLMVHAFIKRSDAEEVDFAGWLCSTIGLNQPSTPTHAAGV
Source text: as §2

GSK3β(h) = GSK3β(h) (Homo sapiens, UniProt P49841); experiment: Kinase inhibition at 1 μM; assay type: biochemical; conditions: 1 μM of compound
GSK3β(h), sequence (P49841 whole entry): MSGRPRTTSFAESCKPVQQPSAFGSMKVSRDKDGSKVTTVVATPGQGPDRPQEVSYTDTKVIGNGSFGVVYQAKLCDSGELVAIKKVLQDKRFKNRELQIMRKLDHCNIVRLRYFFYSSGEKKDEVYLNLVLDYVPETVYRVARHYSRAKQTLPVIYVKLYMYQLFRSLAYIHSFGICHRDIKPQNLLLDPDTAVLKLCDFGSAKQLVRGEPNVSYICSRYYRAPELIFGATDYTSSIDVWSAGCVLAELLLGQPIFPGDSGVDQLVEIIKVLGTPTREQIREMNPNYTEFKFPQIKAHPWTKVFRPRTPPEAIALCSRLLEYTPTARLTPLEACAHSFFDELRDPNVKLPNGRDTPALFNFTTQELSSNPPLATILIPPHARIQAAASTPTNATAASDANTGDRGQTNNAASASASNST
Source text: as §2

Flt3(h) = Flt3(h) (Homo sapiens, UniProt P36888); experiment: Kinase inhibition at 1 μM; assay type: biochemical; conditions: 1 μM of compound
Flt3(h), sequence (P36888 27-993): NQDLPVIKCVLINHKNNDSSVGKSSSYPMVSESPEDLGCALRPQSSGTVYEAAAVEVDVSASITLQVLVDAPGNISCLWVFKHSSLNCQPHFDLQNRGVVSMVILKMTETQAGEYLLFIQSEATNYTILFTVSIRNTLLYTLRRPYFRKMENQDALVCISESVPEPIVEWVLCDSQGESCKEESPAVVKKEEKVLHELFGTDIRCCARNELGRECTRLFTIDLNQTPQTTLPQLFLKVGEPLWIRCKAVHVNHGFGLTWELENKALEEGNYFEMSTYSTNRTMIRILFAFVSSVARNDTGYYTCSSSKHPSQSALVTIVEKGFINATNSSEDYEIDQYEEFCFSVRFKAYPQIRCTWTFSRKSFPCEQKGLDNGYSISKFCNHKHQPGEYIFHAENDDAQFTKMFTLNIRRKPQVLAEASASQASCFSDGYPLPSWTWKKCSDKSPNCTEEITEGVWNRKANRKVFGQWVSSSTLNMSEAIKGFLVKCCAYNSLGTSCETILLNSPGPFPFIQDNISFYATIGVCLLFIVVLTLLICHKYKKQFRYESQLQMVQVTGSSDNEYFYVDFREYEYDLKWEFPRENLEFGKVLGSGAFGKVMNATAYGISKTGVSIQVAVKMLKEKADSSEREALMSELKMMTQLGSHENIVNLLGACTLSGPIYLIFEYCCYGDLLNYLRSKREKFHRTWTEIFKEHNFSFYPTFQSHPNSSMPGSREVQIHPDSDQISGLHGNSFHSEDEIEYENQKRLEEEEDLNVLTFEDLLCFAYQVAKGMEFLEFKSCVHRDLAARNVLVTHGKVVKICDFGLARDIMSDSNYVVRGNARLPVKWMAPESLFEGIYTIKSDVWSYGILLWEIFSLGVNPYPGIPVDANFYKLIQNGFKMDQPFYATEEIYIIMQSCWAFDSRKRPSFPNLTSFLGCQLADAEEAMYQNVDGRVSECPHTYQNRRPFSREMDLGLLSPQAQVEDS
Source text: as §2

Ab1(h) = Ab1(h) (Homo sapiens, UniProt P00519); experiment: Kinase inhibition at 1 μM; assay type: biochemical; conditions: 1 μM of compound
Ab1(h), sequence (P00519 whole entry): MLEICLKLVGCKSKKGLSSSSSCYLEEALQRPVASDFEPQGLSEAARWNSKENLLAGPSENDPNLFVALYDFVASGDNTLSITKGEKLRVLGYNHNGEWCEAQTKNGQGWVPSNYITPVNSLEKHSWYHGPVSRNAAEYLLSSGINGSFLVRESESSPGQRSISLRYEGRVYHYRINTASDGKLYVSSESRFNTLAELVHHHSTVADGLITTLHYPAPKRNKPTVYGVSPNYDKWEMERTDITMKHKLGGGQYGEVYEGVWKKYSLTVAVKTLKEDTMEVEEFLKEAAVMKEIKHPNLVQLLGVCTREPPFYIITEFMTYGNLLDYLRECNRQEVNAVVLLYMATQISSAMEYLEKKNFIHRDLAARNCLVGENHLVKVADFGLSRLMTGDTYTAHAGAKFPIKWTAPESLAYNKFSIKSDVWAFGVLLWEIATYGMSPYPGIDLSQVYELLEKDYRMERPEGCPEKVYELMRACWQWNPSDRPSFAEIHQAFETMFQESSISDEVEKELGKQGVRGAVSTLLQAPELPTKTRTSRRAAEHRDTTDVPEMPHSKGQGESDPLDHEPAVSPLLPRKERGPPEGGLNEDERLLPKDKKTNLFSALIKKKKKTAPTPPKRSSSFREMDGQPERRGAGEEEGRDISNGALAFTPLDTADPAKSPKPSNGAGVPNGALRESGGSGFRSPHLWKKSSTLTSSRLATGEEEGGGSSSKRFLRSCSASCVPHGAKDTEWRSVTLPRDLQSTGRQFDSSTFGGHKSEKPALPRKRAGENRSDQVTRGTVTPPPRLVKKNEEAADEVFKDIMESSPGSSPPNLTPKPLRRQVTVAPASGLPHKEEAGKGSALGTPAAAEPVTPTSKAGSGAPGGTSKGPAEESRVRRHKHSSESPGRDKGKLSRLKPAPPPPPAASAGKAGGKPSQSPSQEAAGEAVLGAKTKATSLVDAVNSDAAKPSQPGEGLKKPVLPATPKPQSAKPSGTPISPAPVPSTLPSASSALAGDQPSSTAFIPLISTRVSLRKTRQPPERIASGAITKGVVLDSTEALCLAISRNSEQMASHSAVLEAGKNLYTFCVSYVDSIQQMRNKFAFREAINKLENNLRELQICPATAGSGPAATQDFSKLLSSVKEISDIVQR
Source text: as §2

EphB4(h) = EphB4(h) (Homo sapiens, UniProt P54760); experiment: Kinase inhibition at 1 μM; assay type: biochemical; conditions: 1 μM of compound
Source text: as §2

PKBa(h) = PKBa(h) (Homo sapiens, UniProt P31749); experiment: Kinase inhibition at 1 μM; assay type: biochemical; conditions: 1 μM of compound
Source text: as §2

cSRC(h) = cSRC(h) (Homo sapiens, UniProt P12931); experiment: Kinase inhibition at 1 μM; assay type: biochemical; conditions: 1 μM of compound
Source text: as §2

TrkA(h) = TrkA(h) (Homo sapiens, UniProt P04629); experiment: Kinase inhibition at 1 μM; assay type: biochemical; conditions: 1 μM of compound
TrkA(h), sequence (P04629 33-796): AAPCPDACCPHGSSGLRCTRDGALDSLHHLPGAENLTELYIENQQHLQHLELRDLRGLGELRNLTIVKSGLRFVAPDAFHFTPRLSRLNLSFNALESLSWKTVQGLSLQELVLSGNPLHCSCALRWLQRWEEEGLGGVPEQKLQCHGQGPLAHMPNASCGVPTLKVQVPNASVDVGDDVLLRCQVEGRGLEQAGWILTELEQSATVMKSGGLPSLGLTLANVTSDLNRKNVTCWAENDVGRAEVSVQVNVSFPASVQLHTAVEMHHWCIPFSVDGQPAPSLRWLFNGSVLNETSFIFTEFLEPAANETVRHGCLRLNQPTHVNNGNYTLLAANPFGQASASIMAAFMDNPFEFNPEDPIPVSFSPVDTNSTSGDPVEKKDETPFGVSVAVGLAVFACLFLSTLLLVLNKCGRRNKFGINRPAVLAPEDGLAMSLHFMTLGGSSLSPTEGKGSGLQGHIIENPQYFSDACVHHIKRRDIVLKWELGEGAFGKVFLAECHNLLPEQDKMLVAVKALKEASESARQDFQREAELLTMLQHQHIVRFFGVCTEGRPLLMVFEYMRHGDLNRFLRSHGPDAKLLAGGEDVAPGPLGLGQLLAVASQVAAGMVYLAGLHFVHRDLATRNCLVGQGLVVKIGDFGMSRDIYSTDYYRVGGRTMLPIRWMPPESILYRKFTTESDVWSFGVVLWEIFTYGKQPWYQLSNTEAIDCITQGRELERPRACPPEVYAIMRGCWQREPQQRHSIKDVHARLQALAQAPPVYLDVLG
Source text: as §2

[5] = Drug metabolism and pharmacokinetics, IV and oral dosing; assay type: in vivo
[6] = compound 75 mg/kg qdx12 i.p. + Abraxane 10 mg/kg q4dx3 i.v.

Structure (SMILES) | inhibition at 1 µM (Ret(h)) [%] | inhibition at 1 µM (EGFR(h)) [%] | inhibition at 1 µM (GF-1R(h), activate) [%] | inhibition at 1 µM (PDGFRa(h)) [%] | inhibition at 1 µM (cKit(h)) [%] | inhibition at 1 µM (Aurora-A(h)) [%] | inhibition at 1 µM (mTOR(h)) [%] | inhibition at 1 µM (Met(h)) [%] | inhibition at 1 µM (MEK1(h)) [%] | inhibition at 1 µM (GSK3β(h)) [%] | inhibition at 1 µM (Flt3(h)) [%] | inhibition at 1 µM (Ab1(h)) [%] | inhibition at 1 µM (EphB4(h)) [%] | inhibition at 1 µM (PKBa(h)) [%] | inhibition at 1 µM (cSRC(h)) [%] | inhibition at 1 µM (TrkA(h)) [%] | F ([5]; Oral dosing) [%] | AUC(0-inf) ([5]; in vivo, IV dosing) [ng·h/mL] | enhancement of the antitumor activity of Abraxane [4, 6] | tumor inhibition as single agent [4] | also measured
CC1=C2C[C@H]3[C@@H](CC[C@@H]4C[C@H](NS(C)(=O)=O)CC[C@@]43C)[C@@H]2CC[C@@]2(C1)O[C@@H]1C[C@H](C)CN[C@H]1[C@H]2C [IPI-926, IPI926] |  |  |  |  |  |  |  |  |  |  |  |  |  |  |  |  |  |  |  |  | median % of mice on study (mice taken off study when tumors reached 1000 mm^3) [1]: no effect as a single agent; average peak time for contrast agent levels ([2]; 40 mg/kg orally for seven consecutive days, vehicle 11.0 seconds, p=0.0321): 4.75 s; Time to Peak (contrast) ([2]; individual mice, 40 mg/kg orally for seven consecutive days, 40 mg/kg): 3 s and 4 s and 6 s (2×); tumor perfusion ([2]; subcutaneous L3.6pl model, 40 mg/kg orally for seven days): increased tumor perfusion; murine Gli1 mRNA expression (murine Gli1 mRNA): inhibition of murine Glil mRNA expression; human Gli1 mRNA levels (human Gli1 mRNA): not modulated; tumor growth inhibition [3]: 38%
Cc1cc(C(F)(F)F)ccc1C(=O)Nc1ccc(Cl)c(-c2nccc3ccccc23)c1 [ABI2099] |  |  |  |  |  |  |  |  |  |  |  |  |  |  |  |  |  |  | significantly enhanced the antitumor activity of Abraxane® | none of ABI2012, ABI1914, ABI2088, and ABI2099 as single agent showed significant tumor inhibition effects | 
CS(=O)(=O)c1ccc(C(=O)Nc2ccc(Cl)c(-c3nccc4ccccc34)c2)c(Cl)c1 [ABI1914] | -3 | -3 | -5 | -3 | -4 | 1 | 6 | 3 | -9 | 3 | -14 | -18 | -12 | 5 | 3 | -12 |  |  |  | none of ABI2012, ABI1914, ABI2088, and ABI2099 as single agent showed significant tumor inhibition effects | 

Continued, in another order:

inhibition at 1 µM (Ret(h)) [%] | inhibition at 1 µM (EGFR(h)) [%] | inhibition at 1 µM (GF-1R(h), activate) [%] | inhibition at 1 µM (PDGFRa(h)) [%] | inhibition at 1 µM (cKit(h)) [%] | inhibition at 1 µM (Aurora-A(h)) [%] | inhibition at 1 µM (mTOR(h)) [%] | inhibition at 1 µM (Met(h)) [%] | inhibition at 1 µM (MEK1(h)) [%] | inhibition at 1 µM (GSK3β(h)) [%] | inhibition at 1 µM (Flt3(h)) [%] | inhibition at 1 µM (Ab1(h)) [%] | inhibition at 1 µM (EphB4(h)) [%] | inhibition at 1 µM (PKBa(h)) [%] | inhibition at 1 µM (cSRC(h)) [%] | inhibition at 1 µM (TrkA(h)) [%] | F ([5]; Oral dosing) [%] | AUC(0-inf) ([5]; in vivo, IV dosing) [ng·h/mL] | Structure (SMILES) | enhancement of the antitumor activity of Abraxane [4, 6] | tumor inhibition as single agent [4] | also measured
 |  |  |  |  |  |  |  |  |  |  |  |  |  |  |  | 62 | 1390 ± 164 | CC(=O)Nc1ccc(C(=O)Nc2ccc(Cl)c(-c3nccc4ccccc34)c2)c(Cl)c1 [ABI2088] | significantly enhanced the antitumor activity of Abraxane® | none of ABI2012, ABI1914, ABI2088, and ABI2099 as single agent showed significant tumor inhibition effects | tumor growth inhibition in combination with Abraxane ([4]; day 22, compound 75 mg/kg qdx12 i.p. + Abraxane 10 mg/kg q4dx3 i.v.): about 100%; clearance ([5]; in vivo, IV dosing): 12.1 ± 1.59 mL/min/kg; half-life ([5]; in vivo, IV dosing): 78.6 ± 8.4 min; Vd ([5]; in vivo, IV dosing, read-out: Vss): 1.02 ± 0.11 L/kg; AUC(0-inf) ([5]; in vivo, Oral dosing): 4310 ± 1200 ng·h/mL; Cmax ([5]; in vivo, Oral dosing): 1000 ± 659 ng/mL; Tmax ([5]; in vivo, Oral dosing): 30 min
1 | -9 | 8 | 0 | -4 | 7 | -6 | -19 | 2 | -4 | 1 | 13 | -33 | -19 | -1 | -7 | 53 | 3980 ± 1540 | CS(=O)(=O)c1ccc(C(=O)Nc2ccc(Cl)c(-c3ccccn3)c2)c(Cl)c1 [GDC-0449] |  | none of ABI2012, ABI1914, ABI2088, and ABI2099 as single agent showed significant tumor inhibition effects | clearance ([5]; in vivo, IV dosing): 4.65 ± 1.81 mL/min/kg; half-life ([5]; in vivo, IV dosing): 79.2 ± 15.5 min; AUC(0-inf) ([5]; in vivo, Oral dosing): 10500 ± 3150 ng·h/mL; Cmax ([5]; in vivo, Oral dosing): 2760 ± 1020 ng/mL; Tmax ([5]; in vivo, Oral dosing): 40 ± 17.3 min
